Measurements: patent US20230416304A1, “TETRAPEPTIDE AND COMPOSITIONS COMPRISING TETRAPEPTIDES” (THE BOOTS COMPANY PLC, priority 2020, published 2023)
The star is where a group is joined. Palmitoyl = CCCCCCCCCCCCCCCC(=O)*

Experiments:
Fibronectin = test: ELISA of fibronectin in culture supernatant of human dermal fibroblasts; assay type: cell-based; conditions: HDFs, 72 hours, ELISA weighted to viable cells
Procedure: (§1) An ELISA is an immunological assay commonly used to measure presence and abundance of a specific proteins (antibodies, antigens, proteins and glycoproteins) in biological samples. In this case ELISAs are being used to quantify the expression of dermal extracellular proteins collagen-1, decorin and fibronectin. The quantity of collagen I is evaluated via the quantity of PIP (“carboxU-terminal pro-peptide of procollagen type I”) which is a peptide fragment resulting from the enzymatic degradation of procollagen present outside the fibroblast in the culture supernatant medium.
(§2) For all experiments, the control liquid stock was prepared by dissolving the powdered peptides in DMSO (Dimethyl Sulfoxide solvent). Peptide powders were dissolved in DMSO at recommended part per million concentrations and then further diluted in the cell culture medium and combined to obtain the desired peptide ratio.
(§3) Normal human dermal fibroblasts cells (HDFs) were cultured in contact with the tetrapeptides of the present invention, or composition without the peptide (negative control), for 72 hours. Thereafter the cultured supernatants were removed, and the quantity of dermal extracellular proteins determined using an ELISA assay for the protein of interest. For the ELISA quantification, cell viability was calculated using Hoechst staining allowing the quantity of dermal proteins to be weighted to the number of viable cells.
(§4) The effect of LSXX tetrapeptides on ECM protein expression by fibroblasts as measured by ELISA (columns 1 to 3) versus a tetrapeptide not conforming to the LSXX structure (column 4) are presented in the table below (table 1). Results are expressed as % increase versus the negative control.

Decorin = test: ELISA of decorin in culture supernatant of human dermal fibroblasts; assay type: cell-based; conditions: HDFs, 72 hours, ELISA weighted to viable cells
Procedure: as §1, §2, §3, §4

Collagen I (PIP) = test: ELISA of Collagen I (PIP) in culture supernatant of human dermal fibroblasts; assay type: cell-based; conditions: HDFs, 72 hours, ELISA weighted to viable cells
Procedure: as §1, §2, §3
The quantity of Collagen I is evaluated via the quantity of PIP (“carboxU-terminal pro-peptide of procollagen type I”) which is a peptide fragment resulting from the enzymatic degradation of procollagen present outside the fibroblast in the culture supernatant medium.
as §4

Fibrillin-1 = test: Immunofluorescence of Fibrillin-1 expression by HDF cells; assay type: cell-based, human; conditions: HDFs, 5 days
Procedure: Immunofluorescence relies on the use of antibodies to label a specific protein with a fluorescent dye such as fluorescein isothiocyanate (FITC). In the following experiments, indirect immunofluorescence is used where a primary antibody first recognises and attaches to the specific protein, in this case fibrillin-1, and then a secondary antibody conjugated with FITC directed against the primary antibody is used for detection.
as §2
Fibrillin-1 expression was determined using immunofluorescence. Primary human dermal fibroblast (HDF) cells were purchased from Promo Cell and came from a donor. Cells were grown in wells of 96 well black walled clear bottomed plates (Peirce, Thermo Fisher). Cells were cultured in HDF media (PromoCell) supplemented with Basic Fibroblast Growth Factor (recombinant human), 1 ng/ml and Insulin 5 μg/ml. Cells were cultured for 5 days in the presence of the tetrapeptides, changing media and peptides every 48 hours, followed by immunofluorescence assessment. At the time of treatment cells were at passage 3-4. After 5 days the media was discarded, and cells fixed with methanol. The Fibrillin-1 fibre formation was probed using primary Fibrillin-1 monoclonal antibody (11C1.3; mouse monoclonal antibody (Thermo Fisher) 1 in 100 dilution overnight) designed to detect Fibrillin-1 protein. The Fibrillin-1 fibre formation was then probed with a secondary Goat anti-mouse IgG Thermo Fisher (1 part antibody in 1000 buffer solution for 1 hour) which includes a fluorescent tag designed to reveal the primary antibody binding pattern.
The antibody binding to Fibrillin-1 fibres was visualised using a Nikon Eclipse 100 microscope fluorescence setting using an excitation lens for fluorescein isothiocyanate (FITC). Images were taken using 6 second UV exposure. ImageJ software was used to quantify the Fibrillin-1 fibre abundance and coverage in each image using a threshold of 235 measuring the fibre density.
Results are expressed as a percentage increase in fibrillin abundance compared to untreated control.
Fibrillin-1 expression by HDF cells treated with tetrapeptides conforming to the LSXX structure (Pal-LSPG-OH, Pal-LSPD-OH and Pal-LSVD-OH) and a tetrapeptide not conforming to the LSXX structure (Pal-GYIL-OH), are presented in the table below (table 2). The peptide concentration used offered the highest yield of Fibrillin-1 production.

PRDX4 = test: LC-MS/MS relative protein abundance in HDF secretome/matrisome: PRDX4; assay type: cell-based, human; conditions: HDFs, peptide 8 ppm, seven-day culture, secretome + matrisome
Procedure: (§5) Following incubation with the peptides, liquid chromatography tandem mass spectrometry (LC-MS/MS) was used to quantify the relative abundance differences between proteins identified in the secretome/matrisome, versus an untreated control. HDFs from a donor, plated at 50,000 cells per well, were cultured with either peptide dissolved in cell culture media to achieve a final concentration of 8 ppm or with media without any peptide as a negative control. Treated and control cells were tested in triplicate. The cells were cultured as normal for five days in serum-supplemented media and then for a further two days in serum-free media (seven-day culture in total). The cell media containing the secretome (the proteins secreted by the cell) and the ECM, decellularized by incubation with EDTA (ethylenediaminetetraacetic acid), containing the matrisome (the collection of ECM associated proteins) were collected. The combined secretome and the matrisome compartments were subsequently analysed by LC-MS/MS using the following protocol.
(§6) Proteins were denatured (in urea), reduced (in dithiothreitol) and mechanically disassociated (using ultrasonication) prior to overnight digestion with trypsin (SMART Digest™ trypsin kit; Thermo Fisher). After digestion, samples were cleaned of contaminants up by removal of organic molecules and surfactants using biphasic extraction and desalted using OLIGO™ R3 Reversed Phase Resin (Thermo Fisher).
(§7) Samples (200 ng) were ran on an UltiMate® 3000 Rapid Separation Liquid Chromatographer coupled to a Q Exactive™ Hybrid Quadrupole-Orbitrap™ Mass Spectrometer for 90-minutes per sample run. Spectral data was searched again the Uniprot Human proteome database using Mascot v2.5.1. Subsequent protein identification and data-dependent quantification was performed using Progenesis QI. Normalised protein abundances were compared between each peptide treatment and control. Statistical analysis was performed within Progenesis QI using a between sample ANOVA.
(§8) The mass spectrometry data for each peptide is shown below in table 3 and FIG. 1. Changes in protein synthesis abundance due to each peptide are described below, including changes to specific proteins and the protein families they belong to (table 3). […] These protein families were as follows: antioxidants, cell stress proteins, ECM cleaving enzymes and ECM adhesion proteins; functional protein families all with a potentially important role in dermal repair and remodelling.

CTSL = test: LC-MS/MS relative protein abundance in HDF secretome/matrisome: CTSL; assay type: cell-based, human; conditions: HDFs, peptide 8 ppm, seven-day culture, secretome + matrisome
Procedure: as §5, §6, §7, §8

HSP90B1 = test: LC-MS/MS relative protein abundance in HDF secretome/matrisome: HSP90B1; assay type: cell-based, human; conditions: HDFs, peptide 8 ppm, seven-day culture, secretome + matrisome
Procedure: as §5, §6, §7, §8

SOD1 = test: LC-MS/MS relative protein abundance in HDF secretome/matrisome: SOD1; assay type: cell-based, human; conditions: HDFs, peptide 8 ppm, seven-day culture, secretome + matrisome
Procedure: as §5, §6, §7, §8

human dermal fibroblasts = test: LC-MS/MS overall protein synthesis and functional protein families in HDFs (FIG. 1 bubble plot); assay type: cell-based; conditions: peptide 8 ppm, seven-day culture
Procedure: as §5, §6, §7, §8
In the bubble plot, the larger the bubble size, the stronger the enhancement of proteins within that protein family.

CD44 = test: LC-MS/MS relative protein abundance in HDF secretome/matrisome: CD44; assay type: cell-based, human; conditions: HDFs, peptide 8 ppm, seven-day culture, secretome + matrisome
Procedure: as §5, §6, §7, §8

HSPA8 = test: LC-MS/MS relative protein abundance in HDF secretome/matrisome: HSPA8; assay type: cell-based, human; conditions: HDFs, peptide 8 ppm, seven-day culture, secretome + matrisome
Procedure: as §5, §6, §7, §8

| Substance | CTSL (ECM cleaving enzymes) protein enhanced versus untreated control (CTSL) | Fibronectin, % increase versus the negative control (Fibronectin; peptide 5 ppm) | Decorin, % increase versus the negative control (Decorin; peptide 5 ppm) | Collagen I (PIP), % increase versus the negative control (Collagen I (PIP); peptide 5 ppm) | Fibrillin-1, percentage increase in fibrillin abundance compared to untreated control (Fibrillin-1; peptide 10 ppm) | Fibronectin, % increase versus the negative control (Fibronectin; peptide 3 ppm) | PRDX4 (Antioxidants) protein enhanced versus untreated control (PRDX4) | HSP90B1 (Cell stress) protein enhanced versus untreated control (HSP90B1) | SOD1 (Antioxidants) protein enhanced versus untreated control (SOD1) | overall protein synthesis / expression in comparison to the control (human dermal fibroblasts) | Decorin, % increase versus the negative control (Decorin; peptide 3 ppm) | Collagen I (PIP), % increase versus the negative control (Collagen I (PIP); peptide 3 ppm) | CD44 (ECM adhesion) protein enhanced versus untreated control (CD44) | HSPA8 (Cell stress) protein enhanced versus untreated control (HSPA8) | Fibrillin-1, percentage increase in fibrillin abundance compared to untreated control (Fibrillin-1; peptide 8 ppm) | Fibrillin-1, percentage increase in fibrillin abundance compared to untreated control (Fibrillin-1; peptide 4 ppm) |
| --- | --- | --- | --- | --- | --- | --- | --- | --- | --- | --- | --- | --- | --- | --- | --- | --- |
| Pal-GYIL-OH [reference compound] |  | −23% | +2% | −4% | +3% |  |  |  |  |  |  |  |  |  |  |  |
| Pal-LSPG-OH (Palmitoyl-LSPG-OH; SMILES CCCCCCCCCCCCCCCC(=O)N[C@@H](CC(C)C)C(=O)N[C@@H](CO)C(=O)N1CCC[C@H]1C(=O)NCC(=O)O) [N-palmitoyl tetrapeptide Leu-Ser-Pro-Gly, free C-terminus; LSXX tetrapeptide of the invention] | +107% |  |  |  |  | +82% | +362% | +105% | +50% | overall enhancement of protein synthesis | +39% | +25% | +120% | +46% | +111% |  |
| Pal-LSPD-OH (Palmitoyl-LSPD-OH; SMILES CCCCCCCCCCCCCCCC(=O)N[C@@H](CC(C)C)C(=O)N[C@@H](CO)C(=O)N1CCC[C@H]1C(=O)N[C@@H](CC(=O)O)C(=O)O) [N-palmitoyl tetrapeptide Leu-Ser-Pro-Asp, free C-terminus; LSXX tetrapeptide of the invention] |  | +92% | +24% | +82% |  |  |  |  |  |  |  |  |  |  |  | +98% |

Continued, in another order:

| CTSL (ECM cleaving enzymes) protein enhanced versus untreated control (CTSL) | Substance | Fibronectin, % increase versus the negative control (Fibronectin; peptide 5 ppm) | Decorin, % increase versus the negative control (Decorin; peptide 5 ppm) | Collagen I (PIP), % increase versus the negative control (Collagen I (PIP); peptide 5 ppm) | Fibrillin-1, percentage increase in fibrillin abundance compared to untreated control (Fibrillin-1; peptide 10 ppm) | Fibronectin, % increase versus the negative control (Fibronectin; peptide 3 ppm) | PRDX4 (Antioxidants) protein enhanced versus untreated control (PRDX4) | HSP90B1 (Cell stress) protein enhanced versus untreated control (HSP90B1) | SOD1 (Antioxidants) protein enhanced versus untreated control (SOD1) | overall protein synthesis / expression in comparison to the control (human dermal fibroblasts) | Decorin, % increase versus the negative control (Decorin; peptide 3 ppm) | Collagen I (PIP), % increase versus the negative control (Collagen I (PIP); peptide 3 ppm) | CD44 (ECM adhesion) protein enhanced versus untreated control (CD44) | HSPA8 (Cell stress) protein enhanced versus untreated control (HSPA8) | Fibrillin-1, percentage increase in fibrillin abundance compared to untreated control (Fibrillin-1; peptide 8 ppm) | Fibrillin-1, percentage increase in fibrillin abundance compared to untreated control (Fibrillin-1; peptide 4 ppm) |
| --- | --- | --- | --- | --- | --- | --- | --- | --- | --- | --- | --- | --- | --- | --- | --- | --- |
| ns | Pal-EKGD-OH [reference compound] |  |  |  |  |  | ns | ns | ns | no or limited protein expression |  |  | +29% | ns |  |  |
| +42% | Pal-LSVD-OH (Palmitoyl-LSVD-OH; SMILES CCCCCCCCCCCCCCCC(=O)N[C@@H](CC(C)C)C(=O)N[C@@H](CO)C(=O)N[C@H](C(=O)N[C@@H](CC(=O)O)C(=O)O)C(C)C) [N-palmitoyl tetrapeptide Leu-Ser-Val-Asp, free C-terminus; LSXX tetrapeptide of the invention] | +24% | +131% | +29% | +151% |  | +120% | +49% | +35% | overall enhancement of protein synthesis |  |  | +57% | +48% |  |  |
| +18% | Pal-QTAV-OH [reference compound] |  |  |  |  |  | ns | +30% | ns | no or limited protein expression |  |  | +32% | +18% |  |  |
